Assay results: patent US4603198A, “Cephalosporin derivatives” (Daiichi Seiyaku Co., Ltd., priority 1982, dated 1986)
Values after ≈ are worked out from the molar mass of the structure shown. Counter-ions that a name gives are not always drawn.

Legend:
[1] = acute toxicity in mice (i.v.); conditions: mouse, in vivo, iv
[2] = tested on: S. aureus, 209p; experiment: antibacterial activity (in vitro), Minimum Inhibitory Concentration; format: cell-based; conditions: Staphylococcus aureus, 10^6 /ml of bacteria were seeded, syn isomers
Description: (§1) The antibacterial activity (in vitro) of the preferred compounds of this invention are shown in the following Table 1 in comparison with known compounds having a structure similar to that of the compounds of this invention. All compounds of Table 1 are syn isomers.
(§2) Minimum Inhibitory Concentration (MIC, mcg/ml) (10^6 /ml of bacteria

[3] = tested on: Ser. marcescens, 10104; experiment: as above; format: cell-based; conditions: Serratia marcescens, 10^6 /ml of bacteria were seeded, syn isomers
Description: as §1, §2

[4] = tested on: Pr. vulgaris, 08601; experiment: as above; format: cell-based; conditions: Proteus vulgaris, 10^6 /ml of bacteria were seeded, syn isomers
Description: as §1, §2

[5] = tested on: Ps. aeruginosa, 32104; experiment: as above; format: cell-based; conditions: Pseudomonas aeruginosa, 10^6 /ml of bacteria were seeded, syn isomers
Description: as §1, §2

[6] = tested on: Ps. aeruginosa, 32121; experiment: as above; format: cell-based; conditions: Pseudomonas aeruginosa, 10^6 /ml of bacteria were seeded, syn isomers
Description: as §1, §2

[7] = tested on: E. coli, NIHJ; experiment: as above; format: cell-based; conditions: Escherichia coli, 10^6 /ml of bacteria were seeded, syn isomers
Description: as §1, §2

Structure (SMILES)	LD50 [1] [mg/kg]	MIC [2] [µg/mL]	MIC [3] [µg/mL]	MIC [4] [µg/mL]	MIC [5] [µg/mL]	MIC [6] [µg/mL]	MIC [7] [µg/mL]
Nc1nc(/C(=N/OCc2cc[nH]n2)C(=O)N[C@@H]2C(=O)N3C(C(=O)[O-])=C(C[n+]4ccccc4)CS[C@H]23)cs1 [IC, 7β-(2-(2-aminothiazol-4-yl)-2-((pyrazol-3-yl)methoxyimino)acetamido)-3-(1-pyridinio)methyl-3-cephem-4-carboxylate]	> 2000	0.39 (≈ 0.721 µM)	0.2 (≈ 0.37 µM)	0.1 (≈ 0.185 µM)	1.56 (≈ 2.89 µM)	3.13 (≈ 5.79 µM)	< 0.1
Nc1nc(/C(=N/OCc2ncc[nH]2)C(=O)N[C@@H]2C(=O)N3C(C(=O)[O-])=C(C[n+]4ccccc4)CS[C@H]23)cs1 [c, 7β-(2-(2-aminothiazol-4-yl)-2-((imidazol-2-yl)methoxyimino)acetamido)-3-pyridiniomethyl-3-cephem-4-carboxylate, reference compound]		1.56 (≈ 2.89 µM)	0.2 (≈ 0.37 µM)	0.39 (≈ 0.721 µM)	6.25 (≈ 11.6 µM)	25 (≈ 46.2 µM)	0.2 (≈ 0.37 µM)
Cc1[nH]cnc1CO/N=C(\C(=O)N[C@@H]1C(=O)N2C(C(=O)[O-])=C(C[n+]3ccccc3)CS[C@H]12)c1csc(N)n1 [IF, 7β-(2-(2-aminothiazol-4-yl)-2-((5-methylimidazol-4-yl)methoxyimino)acetamido)-3-(1-pyridino)methyl-3-cephem-4-carboxylate trihydrochloride]		0.78	0.2	0.1	3.13	3.13	< 0.1
Cc1cc[n+](CC2=C(C(=O)[O-])N3C(=O)[C@@H](NC(=O)/C(=N\OCc4c[nH]cn4)c4csc(N)n4)[C@H]3SC2)cc1 [IG, 7β-(2-(2-aminothiazol-4-yl)-2-((imidazol-4-yl)methoxyimino)acetamido)-3-(4-methyl-1-pyridinio)methyl-3-cephem-4-carboxylate trihydrochloride]		1.56	0.1	0.2	3.13	3.13	< 0.1
Nc1nc(/C(=N/OCc2cn[nH]c2)C(=O)N[C@@H]2C(=O)N3C(C(=O)[O-])=C(C[n+]4ccccc4)CS[C@H]23)cs1 [IE, 7β-(2-(2-aminothiazol-4-yl)-2-((pyrazol-4-yl)methoxyimino)acetamido)-3-(1-pyridinio)methyl-3-cephem-4-carboxylate]		0.2 (≈ 0.37 µM)	0.2 (≈ 0.37 µM)	0.1 (≈ 0.185 µM)	6.25 (≈ 11.6 µM)	3.13 (≈ 5.79 µM)	< 0.1
Nc1nc(/C(=N/OCc2c[nH]cn2)C(=O)N[C@@H]2C(=O)N3C(C(=O)[O-])=C(C[n+]4ccccc4)CS[C@H]23)cs1 [IA, 7β-(2-(2-aminothiazol-4-yl)-2-((imidazol-4-yl)methoxyimino)acetamido)-3-(1-pyridinio)methyl-3-cephem-4-carboxylate trihydrochloride]	> 2500	0.2	0.1	0.1	1.56	1.56	0.1
CO/N=C(\C(=O)N[C@@H]1C(=O)N2C(C(=O)O)=C(COC(C)=O)CS[C@H]12)c1csc(N)n1 [a, Cephotaxim, reference compound]		3.13 (≈ 6.87 µM)	0.39 (≈ 0.856 µM)	< 0.1	25 (≈ 54.9 µM)	12.5 (≈ 27.4 µM)	< 0.1
CC(=O)OCC1=C(C(=O)O)N2C(=O)[C@@H](NC(=O)/C(=N\OCc3c[nH]cn3)c3csc(N)n3)[C@H]2SC1 [IH, 7β-(2-(2-aminothiazol-4-yl)-2-((imidazol-4-yl)methoxyimino)acetamido)-3-acetoxymethyl-3-cephem-4-carboxylic acid dihydrochloride]		0.78	0.78	< 0.1	12.5	6.25	< 0.1
NC(=O)c1cc[n+](CC2=C(C(=O)[O-])N3C(=O)[C@@H](NC(=O)/C(=N\OCc4c[nH]cn4)c4csc(N)n4)[C@H]3SC2)cc1 [IB, 7β-(2-(2-aminothiazol-4-yl)-2-((imidazol-4-yl)methoxyimino)acetamido)-3-(4-carbamoyl-1-pyridinio)methyl-3-cephem-4-carboxylate trihydrochloride]		1.56	0.2	0.2	1.56	12.5	< 0.1
Nc1nc(/C(=N/OCc2nnn[nH]2)C(=O)N[C@@H]2C(=O)N3C(C(=O)[O-])=C(C[n+]4ccccc4)CS[C@H]23)cs1 [b, 7β-(2-(2-aminothiazol-4-yl)-2-((1H-tetrazol-5-yl)methoxyimino)acetamido)-3-pyridiniomethyl-3-cephem-4-carboxylate, reference compound]		3.13 (≈ 5.77 µM)	0.39 (≈ 0.719 µM)	0.1 (≈ 0.184 µM)	12.5 (≈ 23 µM)	50 (≈ 92.2 µM)	0.1 (≈ 0.184 µM)
Cn1nnnc1SCC1=C(C(=O)O)N2C(=O)[C@@H](NC(=O)/C(=N\OCc3c[nH]cn3)c3csc(N)n3)[C@H]2SC1 [ID, 7β-(2-(2-aminothiazol-4-yl)-2-((imidazol-4-yl)methoxyimino)acetamido)-3-(1-methyl-1H-tetrazol-5-yl)thiomethyl-3-cephem-4-carboxylic acid dihydrochloride]		0.78	0.39	< 0.1	12.5	3.13	< 0.1
